This series is described as follows: DVS mass change of crystalline 3,7-DKCA salts. The series is classed as physicochemical.

Turning to `CC(C)NC(C)C.C[C@H](CCC(=O)O)[C@H]1CC[C@H]2[C@@H]3C(=O)C[C@@H]4CC(=O)CC[C@]4(C)[C@H]3CC[C@]12C` [Diisopropylamine salt, diisopropylamine salt of 3,7-DKCA], the “DVS mass change 5-95% RH (wt. %)” value was determined as 2.53 wt. %.

Take `C[C@H](CCC(=O)O)[C@H]1CC[C@H]2[C@@H]3C(=O)C[C@@H]4CC(=O)CC[C@]4(C)[C@H]3CC[C@]12C.NCCN` [Ethylenediamine salt, ethylenediamine salt of 3,7-DKCA]: the “DVS mass change 5-95% RH (wt. %)” value came to 19.60 wt. %.

Turning to `CC(C)(C)N.C[C@H](CCC(=O)O)[C@H]1CC[C@H]2[C@@H]3C(=O)C[C@@H]4CC(=O)CC[C@]4(C)[C@H]3CC[C@]12C` [tert-Butylamine salt, tert-butylamine salt of 3,7-DKCA], the “DVS mass change 5-95% RH (wt. %)” value is given as 10.89 wt. %.

The values above are taken from patent US20250296949A1, “HIGH PURITY NON-ANIMAL DERIVED UDCA” (priority 2021, published 2025).
